Test results taken from patent US20100215782A1, “NOVEL MITOCHONDRIAL UNCOUPLING METHODS AND COMPOSITIONS FOR ENHANCING ADIPOCYTE THERMOGENESIS” (METAPROTEOMICS, LLC, priority 2008, published 2010).

Columns and labels:
[1] = test system: 3T3-L1 adipocytes; experiment: JC-1 mitochondrial membrane potential (uncoupling) assay in 3T3-L1 adipocytes; type: cell-based, murine; conditions: for Monomer/Aggregate Ratio: 3T3-L1 adipocytes, test material 25 μg/mL, JC-1 fluorescence relative to JC-1 negative control, values >1.06 significant (p<0.05)
Excerpt: Objective—The objective of this experiment was to observe the dose-response effect of the mitochondrial uncoupler DNP on mitochondrial membrane potential in 3T3-L1 adipocytes using the lipophilic cationic dye, 5,5′,6,6′-tetrachloro-1,1′,3,3′-tetraethylbenzimidazolylcarbocyanine iodide (JC-1).
The Model—The 3T3-L1 murine fibroblast model is commonly used to study the potential effects of compounds on white adipose tissue in vitro. This cell line allows investigation of stimuli and mechanisms that regulate inflammatory mediators of cytokine secretion of the adipocyte. As preadipocytes, 3T3-L1 cells have a fibroblastic appearance. They replicate in culture until they form a confluent monolayer, after which cell-cell contact triggers Go/G1 growth arrest. Terminal differentiation of 3T3-L1 cells to adipocytes depends on proliferation of both pre- and post-confluent preadipocytes. Subsequent stimulation with 3-isobutyl-1-methylxanthane, dexamethasone, and high does of insulin (MDI) for two days prompts these cells to undergo post-confluent mitotic clonal expansion, exit the cell cycle, and begin to express adipocyte-specific genes. Approximately five days after induction of differentiation, more than 90% of the cells display the characteristic lipid-filled adipocyte phenotype. At this stage of differentiation, response to mitochondrial uncouplers such as DNP may be assessed.
Cell culture and Treatment—The murine fibroblast cell line 3T3-L1 was purchased from the American Type Culture Collection (Manassas, Va.) and sub-cultured according to instructions from the supplier. Prior to experiments, cells were cultured in DMEM containing 10% FBS-HI added 50 units penicillin/ml and 50 μg streptomycin/ml, and maintained in log phase prior to experimental setup. Cells were grown in a 5% CO2 humidified incubator at 37° C. Components of the pre-confluent medium included: (1) 10% FBS/DMEM (Fetal Bovine Serum/Dulbecco's Modified Eagle's Medium) containing 4.5 g glucose/L; (2) 50 U/ml penicillin; and (3) 50 μg/ml streptomycin. Growth medium was made by adding 50 ml of heat inactivated FBS and 5 ml of penicillin/streptomycin to 500 ml DMEM. This medium was stored at 4° C. Before use, the medium was warmed to 37° C. in a water bath.
[…] cells were seeded at an initial density of 6×10^4 cells/cm^2 in 24-well plates. For two days, the cells were allowed grow to reach confluence. Following confluence, the cells were forced to differentiate into adipocytes by the addition of differentiation medium; this medium consisted of (1) 10% FBS/DMEM (high glucose); (2) 0.5 mM methylisobutylxanthine; (3) 0.5 μM dexamethasone and (4) 10 μg/ml insulin (MDI medium). After three days, the medium was changed to post-differentiation medium consisting of 10 μg/ml insulin in 10% FBS/DMEM.
Treatment with Test Material 2,4-Dinitrophenol—On Day 6 post differentiation, DNP was dissolved in dimethyl sulfoxide (DMSO) and added to the culture medium to achieve concentrations of 500, 100, 50, 10 or 5 μM per column for 60 min at 37° C. JC-1 was then added to the test and negative control columns in 10 μL DMSO to achieve a final concentration of 5 μM and allowed to incubate at 37° C. for an additional 30 min. A DMSO and solvent plus JC-1 control were run concurrently with each experiment. A Packard Fluorocount spectrofluorometer (Model#BF10000, Meridan, Conn.) set at 560 nm excitation and 590 nm emission was used for quantification of aggregate fluorescence and at 485 nm excitation/530 emission for monomer fluorescence.
Measuring mitochondrial membrane potential changes (ΔΨm)—JC-1 (Sigma, St. Louis, Mo.) has advantages over other cationic dyes in that it can selectively enter into mitochondria and reversibly change color from green to red as the membrane potential increases. In healthy cells with high mitochondrial membrane potential (ΔΨm), JC-1 spontaneously forms complexes known as J-aggregates with intense red fluorescence. […]

[2] = cited from earlier work

Compound: Oc1ccc(C=Cc2cc(O)cc(O)c2)cc1 [Resveratrol]
- Monomer/Aggregate Ratio [1]: 1.48

Compound: CCCCC[C@H](O)CC(=O)CCc1ccc(O)c(OC)c1 [6-Gingerol]
- Monomer/Aggregate Ratio [1]: 1.14

Compound: COc1cc(/C=C/C(=O)CC(=O)/C=C/c2ccc(O)c(OC)c2)ccc1O [Curcumin]
- Monomer/Aggregate Ratio [1]: 3.89

Compound: O=[N+]([O-])c1ccc(O)c([N+](=O)[O-])c1 [DNP, 2,4-dinitrophenol]
- Potency of positive control (decrease of ΔΨm) ([1]; 18.4 μg DNP/mL): 45%
- Mean M/A (monomer/aggregate ratio) of positive control ([1]; 100 μM 2,4-dinitrophenol (18.4 μg DNP/mL), 95% CI=1.34-1.39, n=200, over the experimental period): 1.36
- Concentration at which monomer/aggregate ratio is significantly increased (p<0.05) relative to JC-1 negative controls ([1]; 3T3-L1 adipocytes, 500, 100, 50, 10 or 5 μM for 60 min, FIG. 2): ≥ 50 µM
- Change of ΔΨm in 3T3-L1 adipocytes (in words) ([1]; relative to negative JC-1 controls): dose-related decreased in ΔΨm
- Average fall in diastolic blood pressure ([2]; 30 hypertensive patients): 12.6%
- Average fall in systolic blood pressure ([2]; 30 hypertensive patients): 9.4%
- Dose generally well-tolerated ([2]; approximately 5 mg/kg body weight, feeling of warmth and increased perspiration reported): up to 0.5 g
- Gradual increase in metabolic rate (average) ([2]; daily dosing of 3-5 mg/kg, maintained for a minimum of ten weeks): 40%
- Dose producing profuse sweating, increased heart rate, respiration rate and excessive body temperature rises ([2]; human, in vivo): Above 10 mg/kg
- Average increase in metabolic rate for each dosage increment of 0.1 g ([2]; obese patients): 11%
- Increase in resting metabolic rate ([2]; single doses of 3-5 mg/kg, within the first hour, maintained for 24 hours): 20-30%
- Effect on blood pressure or heart rate ([2]; therapeutic doses, normal patients): no effect on blood pressure or heart rate

Compound: C[C@@H]1O[C@@H](OC[C@H]2O[C@@H](Oc3c(-c4ccc(O)c(O)c4)oc4cc(O)cc(O)c4c3=O)[C@H](O)[C@@H](O)[C@@H]2O)[C@H](O)[C@H](O)[C@H]1O [Rutin Powder, Rutin]
- Monomer/Aggregate Ratio [1]: 1.37

Compound: CNCC(O)c1ccc(O)cc1 (centres unmarked) [Synephrine]
- Monomer/Aggregate Ratio [1]: 1.06
